Legend:
[1] = system: α-SMA expression in MRC5 cells; experiment: α-SMA expression in MRC5 cells co-treated with TGFβ; assay type: cell-based, human
Experimental: (§1) FIG. 15A. Diagram of the BC-1485 synthesis process. FIGS. 15B-15C. Docking studies of the lead compound, BC-1485, interacting with the FIEL1-HECT domain. FIG. 15D. MRC5 cells were treated with the compound at various doses; cells were also co-treated with TGFβ at 2 ng/ml. 18 h later, cells were collected and assayed for α-SMA expression. FIG. 15E. MRC5 cells were seeded in 35 mm glass bottom dishes before co-treatment with TGFβ at 2 ng/ml and BC-1480 or BC1485 at 5μM. FIG. 15F. PIAS4 protein half-life determination after BC-1480 or BC1485 treatment at 5μM for 18 h. FIG. 15G. PIAS4 and KIAA0317 mRNA analysis after BC1485 treatment for 18 h.
MLE cells were cultured in Dulbecco's Modified Eagle Medium-F12 (Gibco) supplemented with 10% fetal bovine serum (DMEM-10). 293T cells were cultured in Dulbecco's Modified Eagle Medium (Gibco) supplemented with 10% fetal bovine serum (DMEM-10). MRC5 cells were cultured in Eagle's Minimum Essential Medium (Gibco) supplemented with 10% fetal bovine serum (EMEM-10). For protein expression in MLE cells, nucleofection was used following Amaxa's protocol. For protein overexpression in 293T cells, Fugene6HD transfection reagents were used following the manufacturer's protocol. For protein expression in MRC5 cells, MRC-5 Cell Avalanche™ Transfection Reagent was used following manufacturer's protocol. Cells were treated with TGFβ at 0-2 ng/ml for 0-18 h. For FIEL1, PKCξ, or GSK3β knockdown studies in cells, scramble shRNA, KIAA0317, PKCξ, or GSK3β shRNA were used to transfect cells for 48 h. For drug treatment, compounds were solubilized in DMSO before being added to the cells for up to 18 h. Cell lysates were prepared by brief sonication in 150 mM NaCl, 50 mM Tris, 1.0 mM EDTA, 2 mM dithiothreitol, 0.025% sodium azide, and 1 mM phenylmethylsulfonyl fluoride (Buffer A) at 4° C. For half-life study, MLE cells were exposed to cycloheximide (40 μg/ml) in a time dependent manner for up to 8 h. Cells were then collected and immunoblotted.

PIAS4 = PIAS4 protein half-life study (cycloheximide) in MLE cells; assay type: cell-based, murine; details: compound 5 μM for 18 h; FIG. 15F
From the text: FIG. 9A. PIAS4 protein half-life study in MLE cells transfected with Empty plasmid or Ubiquitin plasmid. FIG. 9B. PIAS4 protein half-life study with MG132 or Leupeptin. FIG. 9C. Immunoblots showing levels of PIAS4 proteins and V5 after ectopic FIEL1 or UBE3B plasmid expression. FIG. 9D. Immunoblots showing levels of FIEL1 proteins after ectopic FIEL1 plasmid expression in MLE, HeLa, and 293T cells. FIG. 9E. Immunoblots showing levels of PIAS4 proteins and V5 after ectopic FIEL1 plasmid expression in HeLa and 293T cells. FIG. 9F. MLE cells were transfected with an inducible control or FIEL1 plasmid under control of exogenous doxycycline. Cells were treated with doxycycline in a dose dependent manner. Cells were then collected and cell lysates were immunoblotted for FIEL1 and PIAS4. FIG. 9G. MRC5 cells were exposed to TGFβ for 24 h before being assayed for PIAS4 and FIEL1 protein half-lives.
as §1
MLE cells were cultured in Dulbecco's Modified Eagle Medium-F12 (Gibco) supplemented with 10% fetal bovine serum (DMEM-10). 293T cells were cultured in Dulbecco's Modified Eagle Medium (Gibco) supplemented with 10% fetal bovine serum (DMEM-10). MRC5 cells were cultured in Eagle's Minimum Essential Medium (Gibco) supplemented with 10% fetal bovine serum (EMEM-10). For protein expression in MLE cells, nucleofection was used following Amaxa's protocol. For protein overexpression in 293T cells, Fugene6HD transfection reagents were used following the manufacturer's protocol. […]

CC(NC(=O)c1ccc(NS(=O)(=O)c2ccc3[nH]c(=O)[nH]c3c2)cc1)C(=O)N(C)C (stereo not drawn) [BC-1485]
inhibition of TGFβ pathway ([1]; FIG. 15): inhibition of TGFβ pathway
IC50 ([1]; MRC5 cells, TGFβ 2 ng/ml, 18 h, FIG. 15D, read-out: IC50 for decrease of α-SMA expression): ~0.032 µM
PIAS4 protein half-life (PIAS4): stabilized PIAS4 by extending its half-life

Source: patent US10968183B2, “Small molecule FIEL1 inhibitor in inflammatory and fibrotic lung injury” (UNIVERSITY OF PITTSBURGH—OF THE COMMONWEALTH SYSTEM OF …, priority 2015, dated 2021)
